From US20130109721A1, “FAAH Inhibitors” (Ironwood Pharmaceuticals, Inc., priority 2009, published 2013)

Molecular target: T1, FAAH (Mus musculus, UniProt O08914)
T1 construct: Whole brain tissue from these mice was collected; from tissue; host or cells: CD-1 mouse whole brain membrane homogenate
T1 sequence (O08914 1-579): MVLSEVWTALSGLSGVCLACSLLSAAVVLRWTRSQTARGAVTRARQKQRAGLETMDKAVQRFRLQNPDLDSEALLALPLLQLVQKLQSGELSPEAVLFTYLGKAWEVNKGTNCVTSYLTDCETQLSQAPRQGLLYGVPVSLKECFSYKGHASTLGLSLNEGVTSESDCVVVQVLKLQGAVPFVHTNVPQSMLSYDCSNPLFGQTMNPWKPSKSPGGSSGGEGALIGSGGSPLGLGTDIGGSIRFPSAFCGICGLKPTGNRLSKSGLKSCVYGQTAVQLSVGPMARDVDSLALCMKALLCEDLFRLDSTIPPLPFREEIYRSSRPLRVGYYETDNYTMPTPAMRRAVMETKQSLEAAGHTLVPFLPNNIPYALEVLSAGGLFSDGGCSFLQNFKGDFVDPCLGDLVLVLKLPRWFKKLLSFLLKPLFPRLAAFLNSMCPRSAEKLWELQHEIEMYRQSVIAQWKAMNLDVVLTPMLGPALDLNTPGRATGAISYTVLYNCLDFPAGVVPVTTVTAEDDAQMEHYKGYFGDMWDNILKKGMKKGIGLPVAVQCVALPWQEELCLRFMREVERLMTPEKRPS
Assay: FAAH inhibition, mouse brain membrane homogenate assay
Assay type: biochemical
Conditions: average; FAAH extracted from mouse brain homogenate; read-out: Mouse Brain FAAH Extract IC50
Protocol: Adult rats (Charles River CD strain, female, 200 g) were anaesthetized with isofluorane and rapidly decapitated. Each brain was quickly removed and chilled in tubes (3 brains per tube) on ice. About 25 mL of “homogenization buffer” (20 mM HEPES buffer, pH 7.0, with 1 mM MgCl2) was added to 15 to 20 g of brain. The brains were homogenized on ice for 1 minute using an Omni GLH homogenizer (Omni International, Marietta, Ga.). The homogenates were then transferred to three centrifuge tubes and centrifuged at 36,500 g for 20 minutes at 4° C. The supernatant was discarded and each pellet was re-suspended in 25 mL homogenization buffer. The re-suspended material was again centrifuged (36,500 g, 20 minutes at 4° C.). Pellets were combined by resuspension in 10 mL of homogenization buffer and incubated in a 37° C. water bath for 15 minutes. The tubes were then placed on ice for 5 minutes followed by centrifugation at 36,500 g for 20 minutes at 4° C. The supernatant was discarded and the membrane pellets were then re-suspended in 40 mL of “resuspension buffer” (50 mM Tris-HCl buffer, pH 7.4, containing 1 mM EDTA and 3 mM MgCl2). A Bradford Protein assay was performed to determine protein concentration. The protein was aliquotted into screw cap Cryo tubes each containing ˜400 μL, flash frozen in liquid nitrogen and stored at −80° C. until used for the assay. A similar protocol was used to obtain brain membrane homogenates from mice.
Eighteen 10 to 12 week old female CD-1 mice housed at the animal care facility of Ironwood Pharmaceuticals were anesthetized by isoflurane anesthesia and rapidly decapitated using a small decapitator (Harvard Apparatus part #PY8 SS-0012, Holliston, Mass.). Whole brain tissue from these mice was collected (approximately 9.4 g total) and placed on aluminum foil sitting on dry ice to flash freeze the tissue. Tissue was thawed and used to prepare microsomes as described above for rat brain homogenates.
FAAH activity was assayed in the respective homogenates described herein (Rat brain, Mouse brain or Human brain) for certain exemplary substrate compounds using a modification of the method of Omeir et al. (1995 Life Sci 56:1999) and Fowler et al. (1997 J. Pharmacol Exp Ther 283:729). For assay of FAAH activity in rat brain membrane (RBM) homogenates, RBM homogenates (7 μg protein in 20 μL final volume of 10 mM Tris pH 6.5) were mixed with 180 μL of a mixture of the following: 2.0 μM unlabelled anandamide, 0.03 μCi radio labeled anandamide [ethanolamine 1-^3H] (40-60 Cis/mmol, product number ART-626, American Radiolabeled Chemicals, St. Louis, Mo.), 1 mg/mL Bovine Serum Albumin (fatty acid-free BSA, electrophoresis grade, Sigma, St. Louis, Mo.), 10 mM Tris-HCl (pH 6.5), and 1 mM EDTA in the presence and absence of test compounds (vehicle was DMSO at a final concentration of 1%) and incubated for 10 minutes at 37° C. Samples were placed on ice to terminate the reactions.
^3H-ethanolamine product and un-reacted ^3H-anandamide substrate were then separated either: (1) by using chloroform/methanol extraction or (2) by passing the reaction mixture through a glass fiber filter containing activated charcoal. Samples were extracted with chloroform/methanol by adding 0.4 mL of chloroform/methanol (1:1 v/v), vigorously mixing the samples, and separating the aqueous and organic phases by centrifugation. Radioactivity (corresponding to FAAH-catalyzed breakdown of ^3H-anandamide) found in aliquots (0.2 mL) of the aqueous phase was determined by liquid scintillation counting with quench correction. IC50 values were determined as described by Jonsson et al. (2001 Br. J. Pharmacol. 133:1263). Alternatively, reactions were purified using a modification of the solid-phase extraction method described by Wilson et al (2003 Anal. Biochem. 318:270). […]

Compound | IC50 [nM]
COc1cc(NC(=O)C(=O)c2c(C)n(Cc3ccc(Cl)cc3)c3sccc23)ccn1 [Compound I-09, 2-(6-(4-chlorobenzyl)-5-methyl-6H-thieno[2,3-b]pyrrol-4-yl)-N-(2-methoxypyridin-4-yl)-2-oxoacetamide] | 62
Cc1c(C(=O)C(=O)Nc2cccc(Cl)c2)c2c(n1Cc1ccc(Cl)cc1)CCCCCC2 [Compound I-10, 2-(1-(4-chlorobenzyl)-2-methyl-4,5,6,7,8,9-hexahydro-1H-cycloocta[b]pyrrol-3-yl)-N-(3-chlorophenyl)-2-oxoacetamide] | > 5000
COc1cc(NC(=O)C(=O)c2c3c(n(Cc4ccc(Cl)cc4)c2C)CCCCCC3)ccn1 [Compound I-11, 2-(1-(4-chlorobenzyl)-2-methyl-4,5,6,7,8,9-hexahydro-1H-cycloocta[b]pyrrol-3-yl)-N-(2-methoxypyridin-4-yl)-2-oxoacetamide] | 192
COc1cc(NC(=O)C(=O)c2c3c(n(Cc4ccc(Cl)cc4)c2C)CCC(C)(C)C3)ccn1 [Compound I-15, 2-(1-(4-chlorobenzyl)-2,5,5-trimethyl-4,5,6,7-tetrahydro-1H-indol-3-yl)-N-(2-methoxypyridin-4-yl)-2-oxoacetamide] | 7
Cc1c(C(=O)C(=O)Nc2cccc(Cl)c2)c2c(n1Cc1ccc(Cl)cc1)CCCC2 [Compound I-16, 2-(1-(4-chlorobenzyl)-2-methyl-4,5,6,7-tetrahydro-1H-indol-3-yl)-N-(3-chlorophenyl)-2-oxoacetamide] | 2080
COc1cc(NC(=O)C(=O)c2c3c(n(Cc4ccc(Cl)cc4)c2C)CCCC3)ccn1 [Compound I-18, 2-(1-(4-chlorobenzyl)-2-methyl-4,5,6,7-tetrahydro-1H-indol-3-yl)-N-(2-methoxypyridin-4-yl)-2-oxoacetamide] | 9

More lines, now with the values ahead:

IC50 [nM] | Compound
> 5000 | Cc1c(C(=O)C(=O)Nc2cccc(Cl)c2)c2ccsc2n1Cc1ccc(Cl)cc1 [Compound I-08, 2-(6-(4-chlorobenzyl)-5-methyl-6H-thieno[2,3-b]pyrrol-4-yl)-N-(3-chlorophenyl)-2-oxoacetamide]
1090 | Cc1c(C(=O)C(=O)Nc2cccc(Cl)c2)c2c(n1Cc1ccc(Cl)cc1)CCCCC2 [Compound I-12, 2-(1-(4-chlorobenzyl)-2-methyl-1,4,5,6,7,8-hexahydrocyclohepta[b]pyrrol-3-yl)-N-(3-chlorophenyl)-2-oxoacetamide]
3 | COc1cc(NC(=O)C(=O)c2c3c(n(Cc4ccc(Cl)cc4)c2C)CCCCC3)ccn1 [Compound I-13, 2-(1-(4-chlorobenzyl)-2-methyl-1,4,5,6,7,8-hexahydrocyclohepta[b]pyrrol-3-yl)-N-(2-methoxypyridin-4-yl)-2-oxoacetamide]
516 | Cc1c(C(=O)C(=O)Nc2cccc(Cl)c2)c2c(n1Cc1ccc(Cl)cc1)CCC(C)(C)C2 [Compound I-14, 2-(1-(4-chlorobenzyl)-2,5,5-trimethyl-4,5,6,7-tetrahydro-1H-indol-3-yl)-N-(3-chlorophenyl)-2-oxoacetamide]
